This note sets out measurements from patent publication US8680159B2, “Bradykinin 1 receptor modulating compounds” (Gruenenthal GmbH, priority 2010, dated 2014).

Read-outs that look alike come from different tables or passages of the source.

Assay [1] deals with T1, human B1R receptor (CHO K1 cells stably transfected with the human B1R gene) (Homo sapiens, UniProt P46663).
T1 construct: expressed in transfected cells; host or cells: CHO K1 cells (Chinese hamster ovary), stably transfected
T1 sequence (P46663 1-353): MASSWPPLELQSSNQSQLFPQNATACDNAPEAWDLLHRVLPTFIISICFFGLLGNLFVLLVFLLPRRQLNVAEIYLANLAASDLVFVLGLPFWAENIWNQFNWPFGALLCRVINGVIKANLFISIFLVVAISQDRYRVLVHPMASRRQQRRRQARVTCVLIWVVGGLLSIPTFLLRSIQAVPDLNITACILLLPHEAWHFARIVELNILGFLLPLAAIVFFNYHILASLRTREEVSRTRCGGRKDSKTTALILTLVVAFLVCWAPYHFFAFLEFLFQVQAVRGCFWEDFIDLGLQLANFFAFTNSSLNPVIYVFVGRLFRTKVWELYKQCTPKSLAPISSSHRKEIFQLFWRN
Put plainly: Functional study on the bradykinin receptor 1 (B1R), Ca2+ fluorescence (Fluo-4) FLIPR/Novostar assay, hB1R cells. The assay is classed as cell-based. The method, boiled down:
(§1)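 Ca2+ influx (Fluo-4, peak fluorescence, λex 488/λem 540 nm) was measured in CHO K1 lines expressing rat or human B1R. After a 10 μM test-compound pre-addition scoring % activation, cells received EC80 agonist: Des-Arg9-bradykinin for rat, Lys-Des-Arg9-bradykinin for human. Antagonism was expressed as % of maximum inhibition, with IC50 from varied concentrations.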

For assay [2], the target named is T2, B1R receptor of the rat (CHO K1 cells stably transfected with the B1R gene of the rat) (Rattus norvegicus, UniProt P97583).
T2 construct: expressed in transfected cells; host or cells: CHO K1 cells (Chinese hamster ovary), stably transfected
T2 sequence (P97583 1-337): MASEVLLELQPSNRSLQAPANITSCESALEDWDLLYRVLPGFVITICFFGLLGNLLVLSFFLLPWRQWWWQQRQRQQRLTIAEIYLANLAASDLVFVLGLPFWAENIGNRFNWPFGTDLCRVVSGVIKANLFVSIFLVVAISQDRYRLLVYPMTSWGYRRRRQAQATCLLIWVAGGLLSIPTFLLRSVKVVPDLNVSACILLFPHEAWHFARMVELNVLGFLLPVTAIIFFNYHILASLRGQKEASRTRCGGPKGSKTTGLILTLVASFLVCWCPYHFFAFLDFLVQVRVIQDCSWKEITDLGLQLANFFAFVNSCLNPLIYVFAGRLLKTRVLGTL
Nature of the assay: Functional study on the bradykinin receptor 1 (B1R), Ca2+ fluorescence (Fluo-4) FLIPR/Novostar assay, rB1R cells. The assay is classed as cell-based. The following applies: for inhibition at 10 µM: CHO-K1, 10 μM. The method, boiled down: as §1

The mark [3] stands for this setting: CHO-K1, read-out: % inhibition (human B1R) at 10 μM.
[4] abbreviates: read-out: % inhibition (rat B1R) at 10 μM.
The mark [5] stands for this setting: CHO-K1, read-out: % Inhibition (h-B1R) at 10 μM.
Setting [6] is: read-out: % Inhibition (r-B1R) at 10 μM.

Take `CN(C(=O)c1cc(F)c2c(c1)[C@H](N1Cc3cccc(Cl)c3C1=O)CCO2)C1CCN(c2ccncc2)CC1` [Example H-87, (4R)-4-(4-Chloro-3-oxo-1,2-dihydro-isoindol-2-yl)-8-fluoro-N-methyl-N-(1-pyridin-4-yl-piperidin-4-yl)-3,4-dihydro-2H-chromene-6-carboxylic acid amide]: the inhibition at 10 µM turned out to be 39% in assay [1] (setting [3]) and 104% in assay [2] (setting [4]).
`CN(C(=O)c1ccc2c(c1)[C@H](NC(=O)c1ccccc1Cl)CC2)C1CCC(N2CCc3cnccc3C2)CC1` (stereo partly drawn) [Example H-99, (3R)-3-[(2-Chloro-benzoyl)amino]-N-methyl-N-[4-(1,2,3,4-tetrahydro-[2,6]naphthyridin-2-yl)-cyclohexyl]-2,3-dihydro-1H-indene-5-carboxylic acid amide]: the inhibition at 10 µM was 81% in assay [1] (setting [3]) and 104% in assay [2] (setting [4]).
Consider `Cc1cc(N2CCC(N(C)C(=O)c3ccc4c(c3)[C@H](NC(=O)CCC3CCCC3)CC4)CC2)nc(C)n1` [Example H-94, (3R)-3-(3-Cyclopentyl-propanoylamino)-N-[1-(2,6-dimethyl-pyrimidin-4-yl)-piperidin-4-yl]-N-methyl-2,3-dihydro-1H-indene-5-carboxylic acid amide], for which the inhibition at 10 µM was found to be 100% in assay [1] (setting [3]) and 99% in assay [2] (setting [4]).
`CN(C(=O)c1ccc2c(c1)C(N(C)C(=O)CCC1CCCC1)CC2)C1CCN(c2ccncc2)CC1` (stereo not shown) [CC_H-70, 3-(3-Cyclopentyl-propanoyl-methyl-amino)-N-methyl-N-(1-pyridin-4-yl-piperidin-4-yl)-2,3-dihydro-1H-indene-5-carboxylic acid amide]: the inhibition at 10 µM came to 100% in assay [1] (setting [5]) and 103% in assay [2] (setting [6]).
`CN(C)c1cc(N2CCC(N(C)C(=O)c3ccc4c(c3)[C@H](N(C)C(=O)CCC3CCCC3)CC4)CC2)ccn1` [Example H-185, (3R)-3-(3-Cyclopentyl-propanoyl-methyl-amino)-N-[1-(2-dimethylamino-pyridin-4-yl)-piperidin-4-yl]-N-methyl-2,3-dihydro-1H-indene-5-carboxylic acid amide]: the inhibition at 10 µM in assay [1] (setting [3]) came out at 100%; in assay [2] (setting [4]), 105%.
As to `CN(C(=O)c1ccc2c(c1)C(N(C)C(=O)c1cc(F)ccc1Cl)CC2)C1CCN(c2ccncc2)CC1` (stereo not shown) [CC_H-27, 3-[(2-Chloro-5-fluoro-benzoyl)-methyl-amino]-N-methyl-N-(1-pyridin-4-yl-piperidin-4-yl)-2,3-dihydro-1H-indene-5-carboxylic acid amide], in assay [1] (setting [5]), the inhibition at 10 µM stood at 100%. In addition, in assay [2] (10 μM), the “% Inhibition (r-B1R) at 10 μM” value amounted to 104%.
Turning to `Cc1cc(N2CCC(N(C)C(=O)c3cc4c(cc3F)[C@H](NC(=O)c3cc(C)on3)CC4)CC2)nc(C)n1` [Example H-143, N-[(1R)-5-[[1-(2,6-Dimethyl-pyrimidin-4-yl)-piperidin-4-yl]-methyl-carbamoyl]-6-fluoro-2,3-dihydro-1H-inden-1-yl]-5-methyl-isoxazole-3-carboxylic acid amide], the inhibition at 10 µM was determined as 98% in assay [1] (setting [3]) and 31% in assay [2] (setting [4]).
Regarding `CN(C)c1nccc(N2CCC(N(C)C(=O)c3ccc4c(c3)[C@H](NC(=O)c3ccccc3Cl)CC4)CC2)n1` [Example H-118, (3R)-3-[(2-Chloro-benzoyl)amino]-N-[1-(2-dimethylamino-pyrimidin-4-yl)-piperidin-4-yl]-N-methyl-2,3-dihydro-1H-indene-5-carboxylic acid amide], the inhibition at 10 µM is 100% in assay [1] (setting [3]) and 104% in assay [2] (setting [4]).
`CN(C(=O)c1ccc2c(c1)C(NC(=O)C1CCCCC1)CCC2)C1CCN(c2ccncc2)CC1` (stereo not shown) [CC_H-05, 8-(Cyclohexanecarbonylamino)-N-methyl-N-(1-pyridin-4-yl-piperidin-4-yl)-5,6,7,8-tetrahydro-naphthalene-2-carboxylic acid amide]: the inhibition at 10 µM was determined as 98% in assay [1] (setting [5]) and 103% in assay [2] (setting [6]).
In the case of `CN(C)c1ncc2c(n1)CCN(C1CCC(N(C)C(=O)c3ccc4c(c3)[C@H](NC(=O)c3ccccc3Cl)CC4)CC1)C2` (stereo partly drawn) [Example H-102, (3R)-3-[(2-Chloro-benzoyl)amino]-N-[4-(2-dimethylamino-5,6,7,8-tetrahydro-pyrido[4,3-d]pyrimidin-6-yl)-cyclohexyl]-N-methyl-2,3-dihydro-1H-indene-5-carboxylic acid amide], the inhibition at 10 µM in assay [1] (setting [3]) stood at 68%; in assay [2] (setting [4]), 103%.
On to `CC(C)CC(=O)N[C@@H]1CCc2ccc(C(=O)N(C)C3CCN(c4ccncc4)CC3)cc21` [Example H-28, (3R)-N-Methyl-3-(3-methyl-butanoylamino)-N-(1-pyridin-4-yl-piperidin-4-yl)-2,3-dihydro-1H-indene-5-carboxylic acid amide], for which the inhibition at 10 µM in assay [1] (setting [3]) and in assay [2] (setting [4]) was 100% in each case.
Consider `Cc1cc(N2CCC(N(C)C(=O)c3ccc4c(c3)[C@H](NC(=O)c3ccccc3Cl)CC4)CC2)ncn1` [Example H-141, (3R)-3-[(2-Chloro-benzoyl)amino]-N-methyl-N-[1-(6-methyl-pyrimidin-4-yl)-piperidin-4-yl]-2,3-dihydro-1H-indene-5-carboxylic acid amide], for which the inhibition at 10 µM in assay [1] (setting [3]) was 99%; in assay [2] (setting [4]), 105%.
As to `Cc1cc(N2CCC(N(C)C(=O)c3ccc4c(c3)[C@H](NC(=O)c3c(F)cccc3Cl)CC4)CC2)nc(C)n1` [Example H-163, (3R)-3-[(2-Chloro-6-fluoro-benzoyl)amino]-N-[1-(2,6-dimethyl-pyrimidin-4-yl)-piperidin-4-yl]-N-methyl-2,3-dihydro-1H-indene-5-carboxylic acid amide], the inhibition at 10 µM in assay [1] (setting [3]) was 99%; in assay [2] (setting [4]), 104%.
For `CN(C(=O)c1ccc2c(c1)C(NC(=O)c1sccc1Cl)CC2)C1CCN(c2ccncc2)CC1` (stereo not shown) [CC_H-29, 3-Chloro-N-[6-[methyl-(1-pyridin-4-yl-piperidin-4-yl)-carbamoyl]-2,3-dihydro-1H-inden-1-yl]-thiophene-2-carboxylic acid amide], the inhibition at 10 µM in assay [1] (setting [5]) was 99%; in assay [2] (setting [6]) it was 103%.
With `CN(C(=O)c1ccc2c(c1)[C@H](NC(=O)c1ccccc1Cl)CC2)C1CCN(c2ccncc2)C(=O)C1` (stereo partly drawn) [Example H-182, (3R)-3-[(2-Chloro-benzoyl)amino]-N-methyl-N-(2-oxo-1-pyridin-4-yl-piperidin-4-yl)-2,3-dihydro-1H-indene-5-carboxylic acid amide], the values for the inhibition at 10 µM in assay [1] (setting [3]) and in assay [2] (setting [4]) were 15% and 59%, respectively.
For the molecule `CC(C)CC(=O)NC1CC(C)(C)c2ccc(C(=O)N(C)C3CCN(c4ccncc4)CC3)cc21` (stereo not shown) [CC_H-43, N,1,1-Trimethyl-3-(3-methyl-butanoylamino)-N-(1-pyridin-4-yl-piperidin-4-yl)-2,3-dihydro-indene-5-carboxylic acid amide], the inhibition at 10 µM amounted to 100% in assay [1] (setting [5]) and 105% in assay [2] (setting [6]).
On the same counts, the results for `CN(C(=O)c1ccc2c(c1)C(NC(=O)c1sccc1Cl)CCC2)C1CCN(c2ccncc2)CC1` (stereo not shown) [CC_H-07, 3-Chloro-N-[7-[methyl-(1-pyridin-4-yl-piperidin-4-yl)-carbamoyl]-1,2,3,4-tetrahydro-naphthalen-1-yl]-thiophene-2-carboxylic acid amide] are 99% and 103%.
In the case of `CC(C)CC(=O)N(C(C)C)[C@@H]1CCc2ccc(C(=O)N(C)C3CCN(c4ccnc(N(C)C)c4)CC3)cc21` [Example H-119, (3R)-N-[1-(2-Dimethylamino-pyridin-4-yl)-pipendin-4-yl]-3-[isopropyl-(3-methyl-butanoyl)-amino]-N-methyl-2,3-dihydro-1H-indene-5-carboxylic acid amide], the inhibition at 10 µM in assay [1] (setting [3]) came out at 91%; in assay [2] (setting [4]), 52%.
On to `CN(C(=O)c1ccc2c(c1)C(N(C)C(=O)c1cccc(Cl)c1Cl)CC2)C1CCN(c2ccncc2)CC1` (stereo not shown) [CC_H-25, 3-[(2,3-Dichloro-benzoyl)-methyl-amino]-N-methyl-N-(1-pyridin-4-yl-piperidin-4-yl)-2,3-dihydro-1H-indene-5-carboxylic acid amide], for which the inhibition at 10 µM in assay [1] (setting [5]) came to 98%; in assay [2] (setting [6]) it was 104%.
For the molecule `Cc1cc(N2CCC(N(C)C(=O)c3ccc4c(c3)[C@H](NC(=O)c3cc(C(F)(F)F)ccc3Cl)CC4)CC2)nc(C)n1` [Example H-137, (3R)-3-[[2-Chloro-5-(trifluoromethyl)-benzoyl]amino]-N-[1-(2,6-dimethyl-pyrimidin-4-yl)-piperidin-4-yl]-N-methyl-2,3-dihydro-1H-indene-5-carboxylic acid amide], the inhibition at 10 µM in assay [1] (setting [3]) amounted to 99%; in assay [2] (setting [4]), 109%.

Usually inhibition stands for the drop in the measured response relative to a control, in per cent.
